Test results from US8629283B2, “Compounds that modulate negative-sense, single-stranded RNA virus replication and uses thereof” (Icahn School of Medicine at Mount Sinai, priority 2008, dated 2014).
Like-named read-outs stand apart in the source and are kept apart here. Marks after values point to notes of the source that are not given here.

Key:
[1] = tested on: influenza A/Moscow/10/99 virus; format: cell-based
[2] = tested on: influenza B/Yamagata/88 virus; format: cell-based
influenza A/WSN/33 virus [3] = tested on: influenza A/WSN/33 virus
[4] = tested on: influenza A/Wyoming/03/2003 virus; format: cell-based
H5N1/PR8 virus = format: cell-based, influenza A virus
A549 cells = conditions: human
influenza virus = format: cell-based
[5] = tested on: Newcastle disease virus (NDV/B1); format: cell-based
in vitro [6] = conditions: mouse
influenza A virus (FluA) [7] = assay: in vitro; conditions: human
influenza A virus (FluA) [8] = assay: microbe, parasite or virus in culture
[9] = tested on: vesicular stomatitis virus (VSV); format: cell-based
in vitro [10] = conditions: dog
influenza A virus (FluA) [11] = tested on: influenza A virus (FluA)
influenza virus WSN = format: cell-based, influenza A virus
in vitro [12] = conditions: human
[13] = tested on: host cell replication machinery
in vitro [14] = conditions: human; remark: listed apart in the source
[15] = target: influenza viral RNA polymerase (Influenza A virus, UniProt P03427+P03430+P15659); format: cell-based
caspase-3 = conditions: human, 6 h
influenza A/WSN/33 virus [16] = format: cell-based
VSV = format: cell-based, vesicular stomatitis virus
retrovirus MLV = format: cell-based

Row | Compound | increase of viral titer compared to untreated control (influenza A/WSN/33 virus [3]) | CC10 (A549), concentration of 10% cytotoxicity (A549 cells) | effect on entry of influenza virus (influenza virus) | inhibition of FluB (A549) [2] | CC50 (in vitro [6]) | selectivity ratio (influenza A virus (FluA) [7]) | IC50 (influenza A virus (FluA) [8]; A549, read-out: IC50 (A549)) | IC50 (influenza A virus (FluA) [8]; MDCK, read-out: IC50 (MDCK)) | IC50 (influenza A virus (FluA) [8]; MEF, read-out: IC50 (MEF)) | IC50 (influenza A virus (FluA) [8]; read-out: IC50 (HTBE)) | CC50 (in vitro [10]) | Inhibition of FluA (Table 5) (influenza A virus (FluA) [11]) | inhibition of FluA (A549) (influenza A virus (FluA) [11]) | inhibition of FluA (HTBE) (influenza A virus (FluA) [11]) | inhibition of FluA (MDCK) (influenza A virus (FluA) [11]) | inhibition of FluA (MEF) (influenza A virus (FluA) [11]) | inhibition of influenza virus replication (influenza A virus (FluA) [11]) | SI (MDCK) (influenza A virus (FluA) [11]) | IC50 (influenza A virus (FluA) [8]; read-out: IC50 in HTBE cells) | also measured
1 | NC(=NC(=O)c1nc(Cl)c(N)nc1N)NCc1ccc(Cl)cc1Cl [2′,4′-dichlorobenzamil] | 10^3 fold |  |  |  |  |  |  |  |  |  |  |  |  |  |  |  |  |  |  | maximum viral titer compared to untreated cells [1]: significant increase; increase of viral titer compared to untreated cells [2]: 4 fold; increase in viral titers in Vero cells (influenza A/WSN/33 virus [3]): 11 fold; influenza virus growth versus untreated control (influenza A/WSN/33 virus [3]): boost influenza virus replication; maximum viral titer compared to untreated cells [4]: significant increase; increase of viral titer compared to untreated cells (H5N1/PR8 virus): ~20 fold
2 | CN(c1nc(-c2ccc(Br)cc2)cs1)C1CCS(=O)(=O)C1 (stereo not drawn) [A35, 4-(4-bromophenyl)-N-methyl-N-(tetrahydro-1,1-dioxido-3-thienyl)-2-thiazolamine] |  | 11200 nM | did not affect the entry step | 63% (A549)* | 96600 nM | 53 | 2100 nM | 3910 nM | 2640 nM | 1980 nM | 26800 nM | 99.99%* | 99.988% | 99.98% | ~75% | ~99.6% | up to 4 logs | 7 |  | inhibition of NDV [5]: less significant inhibition; inhibition of influenza B virus [2]: less significant inhibition; IC50 (influenza A virus (FluA) [8]; HEK-293T, read-out: IC50 (293T)): 6200 nM; IC50 (influenza A virus (FluA) [8]; Huh7.5, read-out: IC50 (HUH7.5)): 3970 nM; IC50 (influenza A virus (FluA) [8]; read-out: IC50 (Detroit)): 2070 nM; inhibition of VSV [9]: less significant inhibition; inhibition of FluA (293T) (influenza A virus (FluA) [11]): ~50%; inhibition of FluA (Detroit) (influenza A virus (FluA) [11]): ~95.6%; inhibition of FluA (HUH7.5) (influenza A virus (FluA) [11]): ~98.4%; inhibition of viral replication (influenza virus WSN): 4 logs
3 | Cc1[nH]c2ccc(-c3nnc(SCC(=O)N4CCCC4)o3)cc2c1C [A3, 2-(5-(2,3-dimethyl-1H-indol-5-yl)-1,3,4-oxadiazol-2-ylthio)-1-(pyrrolidin-1-yl)ethanone] |  | 38000 nM | did not inhibit viral entry | 94% (A549)* | > 100000 nM | 496 | 540 nM | 820 nM | 3600 nM | 42 nM | > 100000 nM | 99.2%* | 97% | 99.99% | ~99.6% | ~91.2% |  | >122 | 42 nM | CC50 (in vitro [12]): 108000 nM; inhibition of growth of influenza B virus [2]: about 1.5 logs; effect on overall host cell replication machinery (renilla luciferase control plasmid) [13]: not affected; CC50 at 24 h (in vitro [14]): 268000 nM; inhibition of viral RNA polymerase activity [15]: up to 99%
4 | NC(=Nc1ccccc1)NC(=O)c1nc(Cl)c(N)nc1N [phenamil] | 16 fold |  |  |  |  |  |  |  |  |  |  |  |  |  |  |  |  |  |  | induction of apoptosis (caspase-3 activity, fluorescence vs untreated cells) (caspase-3): 1.3 fold; HTS result (luciferase signal of influenza mini-genome reporter) (influenza A/WSN/33 virus [16]): increased luciferase signals
5 | COc1cc2c(O)c3c(c(-c4ccc5c(c4)OCO5)c2cc1OC)C(=O)OC3 [C2, 9-(benzo[d][1,3]dioxol-5-yl)-4-hydroxy-6,7-dimethoxynaphtho[2,3-c]furan-1(3H)-one] |  |  | inhibited | 63% (A549)* | 4850 nM | 82 | 1600 nM | 150 nM | 340 nM | 59 nM | 670 nM |  | 94.7% | 99.96% | ~87.5% | ~96% | up to 3.5 logs | 4 | 59 nM | effect on entry of VSV (VSV): inhibited; effect on entry of MLV (retrovirus MLV): unaffected; effect on course of infection (influenza virus WSN): did not affect the course of infection
